Reference: patent US20200278355A1, “CONJUGATED PROTEINS AND USES THEREOF” (THE SCRIPPS RESEARCH INSTITUTE, priority 2017, published 2020)

Molecular target: T1, TXN (Homo sapiens, UniProt P10599)
T1 construct: H460 cells or H460 cells expressing luciferase in a 10 cm plate were incubated with indicated compounds; endogenous in cells; host or cells: H460
Experiment: ABPP-SILAC BPK-29yne competition in H460 cells: TXN
Assay type: cell-based
Settings: 20 μM
Procedure: Isotopically labeled H460 cell lines were generated as described above. Light and heavy cells were treated with compounds (20 μM) or DMSO, respectively, for 3 h, followed by labeling with the BPK-29yne (5 μM) for 30 min. Cells were washed once ice-cold PBS and lysed in 1% Triton 100-X dissolved in PBS with protease inhibitors (Sigma) by sonication. Lysate was adjusted to 1.5 mg ml^−1 in 500 μL. Samples were conjugated by CuAAC to Biotin-PEG4-azide (5 μL of 10 mM stocks in DMSO, final concentration=100 μM). CuAAC “click” mix contained TCEP, TBTA ligand and CuSO4 as detailed for isoTOP-ABPP sample preparation. Samples were further processed as detailed in: isoTOP-ABPP streptavidin enrichment and isoTOP-ABPP trypsin TEV digestion with the following exception: after overnight incubation at 37° C. with trypsin, tryptic digests were separated from the beads with Micro Bio-Spin columns (Bio-Rad) by centrifugation (1,000×g, 1 min). Beads were rinsed once with water (200 μL) and combined with tryptic digests. […]
The MS2 spectra data were extracted and searched using RAW Convertor and ProLuCID algorithm as described in isoTOP-ABPP peptide and protein quantification. […] Ratios of heavy/light (DMSO/test compound) peaks were calculated using in-house CIMAGE software. […] The mean R values and standard deviation for multiple biological experiments were calculated from the average ratios from each replicate. […]

T1 sequence (P10599 whole entry): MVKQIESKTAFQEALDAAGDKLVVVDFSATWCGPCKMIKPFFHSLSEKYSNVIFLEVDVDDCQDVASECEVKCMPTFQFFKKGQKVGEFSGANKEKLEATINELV

SMILES: O=C(c1ccc(N2CCOCC2)cc1)N1CCCC(N(Cc2ccccc2)C(=O)CCl)CC1 (stereo not shown) [BPK-29, N-benzyl-2-chloro-N-(1-(4-morpholinobenzoyl)azepan-4-yl)acetamide]
- BPK-29-competed BPK-29yne analysis: Yes (Competed defined as showing R value ≥ 2.5 at 20 μM of test compound)
